{"source": "patent US7863251B2", "about": "“Hepatic stellate cell specific promoter and uses thereof” (Agency for Science, Technology and Research, priority 2005, dated 2011)", "molecules": {"B1": {"name": "PDGF-BB: recombinant human PDGF-BB (BioVision), pro-proliferative factor (protein, UniProt P01127 82-190, looked up)", "Platelet-derived growth …": "SLGSLTIAEPAMIAECKTRTEVFEISRRLIDRTNANFLVWPPCVEVQRCSGCCNNRNVQCRPTQVQLRPVQVRKIEIVRKKPIFKKATVTLEDHLACKCETVAAARPVT"}}, "key": {"[1]": {"tested_on": "T6/lacZ/C1 cells (2.2 kb hGFAP-lacZ transgene)", "assay": "X-gal staining of T6/lacZ/C1 cells treated with TGF-β1, PDGF-BB and LPS", "type": "cell-based, rat", "details": "for X-gal blue staining (β-galactosidase) compared to the untreated: 0.1 to 10 ng/ml, 72 hours, X-gal one hour; for expression of a transgene operably coupled to a hGFAP promoter in HSC cell culture: summary statement", "protocol": "A lacZ reporter assay kit for cell staining (InvivoGen, CA, USA) was used to detect the reporter gene activity in both stable and transient transfectants. Development of the blue end product was monitored at different time intervals (15, 30, 60, 90, and 120 minutes). The staining results were documented with a digital camera (DP12) attached to an Olympus inverted bright field microscope (IX51).\n(§1) Cells were seeded into 12-well plates in full DMEM and 500 μg/ml Zeocin. Twelve hours prior to the cytokine treatment, medium was changed so that the cells were allowed to grow in low serum (0.5% FBS) DMEM. The cells at a confluence of 70-80% were incubated with various concentrations (0, 0.1, 1 and 10 […]) of recombinant human TGF-β1, PDGF-BB (BioVision, CA, USA) and 0, 0.1, 1 and 10 μg/ml lipopolysaccharide (LPS E. coli, Sigma) respectively for 0, 2, 8, 16, 24, 48 and 72 hours before they were harvested for β-galactosidase activity assay and real-time RT-PCR GFAP assay.\nTo determine possible induction of GFAP-lacZ expression by molecules with profibrotic and proinflammatory properties in activated HSC the T6/lacZ/C1 cells were treated with TGF-β1, PDGF-BB and LPS respectively at various concentrations (0, 0.1, 1 and 10 ng/ml) in the full DMEM medium for 72 hours. The cells were then stained with X-gal for one hour and photographed. […] In order to obtain truly quantitative data, a solution assay was employed to measure possible up-regulation of β-galactosidase activity by TGF-β1 in experiments below."}, "[2]": {"tested_on": "T6/lacZ/C1 cells (2.2 kb hGFAP-lacZ transgene)", "assay": "Quantitative solution assay of β-galactosidase activity in T6/lacZ/C1 cell extracts", "type": "cell-based, rat", "protocol": "To quantify the β-galactosidase activity in cell extracts reported in FIGS. 4 to 10, an enzyme assay kit (E2000, Promega, Wis., USA) was used to measure the specific activity of β-galactosidase, according to the manufacturer's instructions in a 96-well format. Briefly, the cells were washed twice with 1×PBS buffer (pH7.4), lysed for 15 minutes at room temperature with the reporter lysis buffer, and harvested using a cell scraper. The total cell extracts were appropriately diluted (5-10 fold), and assayed for the enzyme activity. The specific β-galactosidase activity was expressed in milliunit per milliliter (mU/ml) using a standard curve established from the β-galactosidase standard (provided with the kit). The protein concentration was measured with a BCA protein assay kit (Pierce, Ill., USA), and used to further convert the specific β-galactosidase activity from mU/ml to mU/μg total cellular protein. Six independent experiments were performed for each time and concentration data point.\nas §1\nA β-galactosidase activity assay kit (Promega, Wis., USA) was used to measure transgene expression level in the T6/lacZ/C1 clone, using the nontransfected T6 as a negative basal control. When grown in the full DMEM medium to 70-80% confluence, the T6/lacZ/C1 cells yielded an average reading of approximately 0.5 mU/μg, about five times of that in normal T6 cells. The basal reading in the T6 cells was not influenced by the addition of cytokines or LPS (data not shown). For comparison purpose, the β-galactosidase activity in a randomly selected C6 clone containing the 2.2 kb hGFAP-lacZ transgene (designated as C6/lacZ/C4) was measured to have an activity of about 2 mU/μg, […] of that in the T6/lacZ/C1 cells. When incubated with TGF-β1 (0 to 10 ng/ml), the C6/lacZ/C4 cells yielded an induction dynamics of 130 to 200% of the untreated control.\nTo quantify specific transgene response to TGF-β1, we first set up an experiment to assess possible effects that serum concentration and culture duration may have on the transgene expression. T6/lacZ/C1 cells were initially grown in DMEM with high serum (10% FBS), and then some of the cells were starved with a DMEM with low serum (0.5% FBS) for 12 hours prior to the addition of TGF-β1 (1 ng/ml). After incubation for various times (0, 2, 8, 24, 48 and 72 hours), cells were harvested for β-galactosidase activity assay. […] After 72 hours, the level slipped to 58% of the value at 0 hour (P<0.001). The assay results were depicted in FIG. 8.\nTo further dissect the TGF-β1 contribution to the transgene induction, we treated T6/lacZ/C1 cells grown in low serum with various concentrations of TGF-β1 (0, 0.1, 1, 10 ng/ml) and assayed the enzymatic activity for three time points (24, 48 and 72 hours). The assay results were plotted in FIG. 9. […] When the non-treatment groups were normalized to 1 and the magnitude of induction were plotted for the 10 ng/ml treatment groups at all three time points (FIG. 10), a trend of increasing induction with time was apparent."}, "[3]": {"tested_on": "endogenous GFAP mRNA in T6/lacZ/C1 cells", "assay": "Real-time RT-PCR for endogenous rat GFAP mRNA in T6/lacZ/C1 cells", "type": "cell-based", "details": "TGF-β1 1 ng/ml", "protocol": "Total RNA was reverse transcribed to cDNA using Taqman's reverse transcription reagent (Cat. # N808-0234A total of […] of RNA in 7.7 μl nuclease-free water was added to 2 μl 10× reverse transcriptase buffer, 4.4 μl 25 mM magnesium chloride, 4 μl deoxyNTP mixtures, 1 μl random hexamers, 0.4 μl RNase inhibitor and 0.5 μl reverse transcriptase (50 U/μl) in a final reaction volume of 20 μl. The reaction was performed for 10 min at 25° C. (annealing), 30 min at 48° C. (cDNA synthesis) and 5 min at 95° C. (enzyme denaturation).\nReal-time quantitative PCR was carried out with an ABI 7500 Real Time PCR System (Applied Biosystems, CA, USA). One microliter of sample cDNA was used in each PCR reaction, with the housekeeping β-actin gene as a reference for normalization. The primers and probes for rat β-actin and GFAP were purchased from Taqman's assay-on-demand database. The PCR reaction was performed under a default profile consisting of 50° C. for 2 min (UNG activation), 95° C. for 10 min (enzyme denaturation) and 40 cycles of amplification (denaturation 15 seconds, annealing and extension 60 seconds).\nRelative quantitation of the target mRNA was calculated using the comparative threshold cycle (CT) methods as described in the User Bulletin #2 (ABI Prism 7700 Sequence Detection System). CT indicates the fractional cycle number at which the amount of amplified target reaches a fixed threshold within the linear phase of gene amplification. ΔCT, which reflects the difference between CT target and CT β-actin, is inversely correlated to the abundance of mRNA transcripts in the samples. ΔCT for each sample was normalized against control experiment or calibrator and expressed as ΔΔCT. Relative quantitation is given by 2^−ΔΔCT to express the up-regulation or down-regulation of the target gene under the treatments compared to the control.\nIt was known that GFAP, along with desmin, SMAA, and vimentin, was expressed in the clonal T6 cells (Vogel et al. (2000), J Lipid Res. 41(6):882). Naturally, the endogenous GFAP should be expressed in the T6/lacZ/C1 cells as well. In order to investigate how the endogenous GFAP expression is regulated by TGF-β1 in the T6/lacZ/C1 cells during different time course, we quantified rat GFAP mRNA level using a real-time RT-PCR method. Cells were similarly grown and treated with TGF-β1 (1 ng/ml) for various times (0, 2, 8, 16, 24, 48 and 72 hours), as described for the enzymatic assay experiments above. Total RNA was isolated from different cells and quantified as described in Materials and Methods, and the results were depicted in FIG. 11."}}}
{"molecule": "TGF-β1: recombinant human TGF-β1 (BioVision), pro-fibrotic factor", "values": [{"measurement": "X-gal blue staining (β-galactosidase) compared to the untreated", "setting": "[1]", "value": "more intense blue staining"}, {"measurement": "expression of a transgene operably coupled to a hGFAP promoter in HSC cell culture", "setting": "[1]", "value": "induced in a dose-dependent manner"}, {"measurement": "induction of β-galactosidase activity vs non-induced", "setting": "[2]; 1 ng/ml TGF-β1, low serum, 24 hours (P<0.05)", "value": "induction was seen"}, {"measurement": "absolute enzymatic activity (β-galactosidase)", "setting": "[2]; 10 ng/ml TGF-β1, 72 hours", "value": 0.43, "unit": "mU/μg"}, {"measurement": "fold induction of β-galactosidase specific activity, non-treatment normalized to 1", "setting": "[2]; 10 ng/ml TGF-β1, 72 hours", "value": "nearly two fold"}, {"measurement": "induction of β-galactosidase activity vs non-induced", "setting": "[2]; 10 ng/ml TGF-β1, low serum, 24, 48 and 72 hours (P<0.001)", "value": "Significant induction"}, {"measurement": "transgene expression level", "setting": "[2]; TGF-β1 1 ng/ml, 0.5% FBS, 2 and 8 hours", "value": "rapidly elevated"}, {"measurement": "β-galactosidase specific activity at peak", "setting": "[2]; TGF-β1 1 ng/ml, 0.5% FBS, 24 hour", "value": 0.52, "unit": "mU/μg"}, {"measurement": "transgene expression level", "setting": "[2]; TGF-β1 1 ng/ml, 0.5% FBS, 48 hours", "value": "dropped to the same level as at 0 hour"}, {"measurement": "transgene expression level, % of the value at 0 hour", "setting": "[2]; TGF-β1 1 ng/ml, 0.5% FBS, 72 hours", "value": 58, "unit": "%"}, {"measurement": "GFAP mRNA level relative to basal level (normalized to 1) at 0 hour", "setting": "[3]; 16 hour (P<0.005)", "value": 0.5, "unit": "fold"}, {"measurement": "GFAP mRNA level relative to basal level (normalized to 1) at 0 hour", "setting": "[3]; 48 hours", "value": 7, "unit": "fold"}, {"measurement": "GFAP mRNA level relative to basal level (normalized to 1) at 0 hour", "setting": "[3]; 72 hours", "value": 8.5, "unit": "fold"}, {"measurement": "GFAP mRNA level relative to basal level at 0 hour", "setting": "[3]; first 24 hours", "value": "remained steady"}]}
{"molecule": "B1", "values": [{"measurement": "X-gal blue staining (β-galactosidase) compared to the untreated", "setting": "[1]", "value": "less pronounced response"}, {"measurement": "expression of a transgene operably coupled to a hGFAP promoter in HSC cell culture", "setting": "[1]", "value": "induced in a dose-dependent manner"}]}
